From US20230365537A1, “POLO LIKE KINASE 4 INHIBITORS” (ORIC Pharmaceuticals, Inc., priority 2021, published 2023)

Columns and labels:
[1] = molecular target: human recombinant Aurora A (Homo sapiens (Human), UniProt O14965); test: Aurora A Kinase Biochemical Assay (ADP-Glo); settings: ratio of Aurora A IC50 to PLK4 IC50 (selectivity)
human recombinant PLK4 = human recombinant PLK4 (Homo sapiens (Human), UniProt O00444); test: PLK4 Biochemical Assay (ADP-Glo); settings: 0.5 nM PLK4, 8.0 µM ATP, 4.7 µM MBP, 6 hours at RT
In short: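 Recombinant human PLK4 (added at 1.0 nM) was preincubated 15 min at RT with compound in 50 mM HEPES pH 7.5, 10 mM MgCl2, 1 mM EGTA, 1 mM DTT, 0.01% Brij-35, 0.01% BSA. ADP formed was detected by ADP-Glo luminescence (40 min ATP depletion, 30 min detection). IC50 came from a four-parameter fit.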

CHP-134 cells = test: CHP134 CellTiter-Glo (CTG) Assay; assay type: cell-based; settings: Homo sapiens, CHP-134, 120 h, 5 days, viable cells by CellTiter-Glo
Experimental: Cells were seeded (200 cells/well) in 384-well plates for 16 hours. On day two, nine serial 1:3 compound dilutions were made in DMSO in a 96-well plate. The compounds were then further diluted into growth media using a BRAVO robot (Agilent, Santa Clara, CA). The diluted compounds were then added to quadruplicate wells in the 384-well cell plate and incubated at 37° C. and 5% CO2. After 5 days, relative numbers of viable cells were measured by luminescence using CellTiter-Glo® (Promega) according to the manufacturer’s instructions and read on a SPARK Multimode Microplate Reader (Tecan, Mannedorf Switzerland). The IC50 calculations for the values reported in Table 2 were carried out using Prism 6.0 software (GraphPad, San Diego).

[2] = molecular target: human recombinant Aurora B (Homo sapiens (Human), UniProt Q96GD4); test: Aurora B Kinase Biochemical Assay (ADP-Glo); settings: ratio of Aurora B IC50 to PLK4 IC50 (selectivity)
In short: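 Recombinant human Aurora B (20 nM in pH 7.5 HEPES buffer with MgCl2, EGTA, DTT, Brij-35, BSA) preincubated with compound 15 min at RT. ADP formed quantified by ADP-Glo luminescence after ATP depletion (40 min) and detection (30 min). IC50 from four-parameter non-linear regression.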

human recombinant Aurora B, sequence (Q96GD4 whole entry): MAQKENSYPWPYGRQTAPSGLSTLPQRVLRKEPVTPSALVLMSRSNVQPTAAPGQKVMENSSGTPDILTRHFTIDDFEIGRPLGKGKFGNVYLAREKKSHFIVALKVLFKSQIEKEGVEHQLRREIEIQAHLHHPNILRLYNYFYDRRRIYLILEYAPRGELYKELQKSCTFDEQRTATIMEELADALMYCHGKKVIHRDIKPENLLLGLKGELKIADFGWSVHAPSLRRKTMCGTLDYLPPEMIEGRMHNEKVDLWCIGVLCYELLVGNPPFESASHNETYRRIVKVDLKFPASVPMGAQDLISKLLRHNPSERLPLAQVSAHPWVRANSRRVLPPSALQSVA
human recombinant Aurora A, sequence (O14965 whole entry): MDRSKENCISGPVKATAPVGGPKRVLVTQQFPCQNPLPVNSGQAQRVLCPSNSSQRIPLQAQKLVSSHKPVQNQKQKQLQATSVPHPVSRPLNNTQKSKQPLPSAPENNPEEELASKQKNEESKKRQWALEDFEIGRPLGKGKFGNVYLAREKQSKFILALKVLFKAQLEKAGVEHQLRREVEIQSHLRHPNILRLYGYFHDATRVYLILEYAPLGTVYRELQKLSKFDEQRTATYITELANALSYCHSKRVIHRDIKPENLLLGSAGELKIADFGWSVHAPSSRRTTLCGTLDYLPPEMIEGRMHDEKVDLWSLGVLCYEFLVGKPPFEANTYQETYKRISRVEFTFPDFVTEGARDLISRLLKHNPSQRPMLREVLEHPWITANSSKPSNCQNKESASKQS
human recombinant PLK4, sequence (O00444 whole entry): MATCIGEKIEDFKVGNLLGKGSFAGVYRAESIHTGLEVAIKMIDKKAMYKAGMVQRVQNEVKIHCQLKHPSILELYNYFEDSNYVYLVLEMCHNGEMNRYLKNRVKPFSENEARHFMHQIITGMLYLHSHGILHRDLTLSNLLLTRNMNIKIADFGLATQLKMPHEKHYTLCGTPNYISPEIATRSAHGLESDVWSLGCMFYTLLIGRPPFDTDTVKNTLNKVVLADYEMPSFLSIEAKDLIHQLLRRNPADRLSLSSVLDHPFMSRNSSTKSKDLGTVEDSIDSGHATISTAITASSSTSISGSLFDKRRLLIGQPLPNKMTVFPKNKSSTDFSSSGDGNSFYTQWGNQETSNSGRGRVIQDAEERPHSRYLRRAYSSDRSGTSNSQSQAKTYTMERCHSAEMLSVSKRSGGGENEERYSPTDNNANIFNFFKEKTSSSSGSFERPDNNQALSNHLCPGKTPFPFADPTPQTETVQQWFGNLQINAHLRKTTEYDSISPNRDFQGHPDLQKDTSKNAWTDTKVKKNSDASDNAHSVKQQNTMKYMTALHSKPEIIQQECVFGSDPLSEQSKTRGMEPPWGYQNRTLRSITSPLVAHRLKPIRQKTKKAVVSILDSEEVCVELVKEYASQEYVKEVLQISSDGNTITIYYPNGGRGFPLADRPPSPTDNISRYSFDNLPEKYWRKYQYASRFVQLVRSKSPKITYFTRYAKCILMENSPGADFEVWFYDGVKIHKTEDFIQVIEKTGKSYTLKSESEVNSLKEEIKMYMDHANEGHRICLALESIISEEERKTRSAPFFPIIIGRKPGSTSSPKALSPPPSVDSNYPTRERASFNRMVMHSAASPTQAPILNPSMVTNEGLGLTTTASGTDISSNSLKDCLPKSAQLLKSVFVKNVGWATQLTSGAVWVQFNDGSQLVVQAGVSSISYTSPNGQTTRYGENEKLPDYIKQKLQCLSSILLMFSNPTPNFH

In the case of `COc1ccc2c(c1)[C@]1(C[C@H]1c1ccc3c(Nc4ncc(S(=O)(=O)C5CCOCC5)cc4OC)n[nH]c3c1)C(=O)N2` [Example 259, (1R,2S)-5′-methoxy-2-(3-{[3-methoxy-5-(oxane-4-sulfonyl)pyridin-2-yl]amino}-1H-indazol-6-yl)spiro[cyclopropane-1,3′-indol]-2′(1′H)-one], the “[Aurora A IC50 (nM)]/[PLK4 IC50 (nM)]” value [1] is reported as 1294.8084, the IC50 (human recombinant PLK4) is reported as 0.971 nM and the IC50 (CHP-134 cells) is reported as 900 nM. The “[Aurora B IC50 (nM)]/[PLK4 IC50 (nM)]” value [2] was 835.2904.

With `COc1ccc2c(c1)[C@]1(C[C@H]1c1ccc3c(Nc4nc(N5CC(O)C5)ncc4OC)n[nH]c3c1)C(=O)N2` [Example 114] the “[Aurora A IC50 (nM)]/[PLK4 IC50 (nM)]” value [1] was 590.1482, the IC50 (human recombinant PLK4) was 2.09 nM and the IC50 (CHP-134 cells) was 10000 nM. The “[Aurora B IC50 (nM)]/[PLK4 IC50 (nM)]” value [2] was 811.5734.

For `CCP(=O)(CC)c1ccc(Nc2n[nH]c3cc([C@@H]4C[C@@]45C(=O)Nc4ccc(OC)cc45)ccc23)c(OC)n1` [Example 257, (1R,2S)-2-(3-{[6-(diethylphosphoryl)-2-methoxypyridin-3-yl]amino}-1H-indazol-6-yl)-5′-methoxyspiro[cyclopropane-1,3′-indol]-2′(1′H)-one], the “[Aurora A IC50 (nM)]/[PLK4 IC50 (nM)]” value [1] was 1259.8465, the IC50 (human recombinant PLK4) was 3.91 nM and the IC50 (CHP-134 cells) was 1590 nM. The “[Aurora B IC50 (nM)]/[PLK4 IC50 (nM)]” value [2] was 324.5524.

For `CCOc1nc(S(C)(=O)=O)ccc1Nc1n[nH]c2cc([C@@H]3C[C@@]34C(=O)Nc3ccc(OC)cc34)ccc12` [Example 202, (1R,2S)-2-(3-{[2-ethoxy-6-(methanesulfonyl)pyridin-3-yl]amino}-1H-indazol-6-yl)-5′-methoxyspiro[cyclopropane-1,3′-indol]-2′(1′H)-one], the “[Aurora A IC50 (nM)]/[PLK4 IC50 (nM)]” value [1] was 1031.3433, the IC50 (human recombinant PLK4) was 2.68 nM and the IC50 (CHP-134 cells) was 422 nM. For the same compound, the “[Aurora B IC50 (nM)]/[PLK4 IC50 (nM)]” value [2] was 321.4179.

With `COc1ccc2c(c1)[C@]1(C[C@H]1c1ccc3c(Nc4ncc(C(=O)N(C)C)cc4OC)n[nH]c3c1)C(=O)N2` [Example 197, 5-methoxy-6-({6-[(1R,2S)-5′-methoxy-2′-oxo-1′,2′-dihydrospiro[cyclopropane-1,3′-indol]-2-yl]-1H-indazol-3-yl}amino)-N,N-dimethylpyridine-3-carboxamide] the “[Aurora A IC50 (nM)]/[PLK4 IC50 (nM)]” value [1] was 1243.4944, the IC50 (human recombinant PLK4) was 1.08 nM and the IC50 (CHP-134 cells) was 1080 nM. For the same compound, the “[Aurora B IC50 (nM)]/[PLK4 IC50 (nM)]” value [2] was 73.8197.

For `COc1ccc2c(c1)[C@]1(C[C@H]1c1ccc3c(Nc4ncc(S(=O)(=O)N5CC6CCC(C5)O6)cc4OC)n[nH]c3c1)C(=O)N2` [Example 256, (1R,2S)-5′-methoxy-2-(3-{[3-methoxy-5-(8-oxa-3-azabicyclo[3.2.1]octane-3-sulfonyl)pyridin-2-yl]amino}-1H-indazol-6-yl)spiro[cyclopropane-1,3′-indol]-2′(1′H)-one], the “[Aurora A IC50 (nM)]/[PLK4 IC50 (nM)]” value [1] was 1143.4287, the IC50 (human recombinant PLK4) was 0.65 nM and the IC50 (CHP-134 cells) was 310 nM. The “[Aurora B IC50 (nM)]/[PLK4 IC50 (nM)]” value [2] was 1153.

With `COc1ccc2c(c1)[C@]1(C[C@H]1c1ccc3c(Nc4nc(N5CCCC5)ncc4OC)n[nH]c3c1)C(=O)N2` [Example 167, (1R,2S)-5′-methoxy-2-(3-{[5-methoxy-2-(pyrrolidin-1-yl)pyrimidin-4-yl)amino}-1H-indazol-6-yl)spiro[cyclopropano-1,3′-indol]-2′(1′H)-one] the “[Aurora A IC50 (nM)]/[PLK4 IC50 (nM)]” value [1] was 295.5932, the IC50 (human recombinant PLK4) was 1.18 nM and the IC50 (CHP-134 cells) was 212 nM. The “[Aurora B IC50 (nM)]/[PLK4 IC50 (nM)]” value [2] was 916.9492.

In the case of `COc1ccc2c(c1)[C@]1(C[C@H]1c1ccc3c(Nc4ncnc(N5CCCCC5)c4OC)n[nH]c3c1)C(=O)N2` [Example 12, (1R.2S)-5′-Methoxy-2-(3-{[5-methoxy-6-(piperidin-1-yl)pyrimidin-4-yl]amino}-1H-indazol-6-yl)spiro[cyclopropane-1,3′-indol]-2′(1′H)-one], the IC50 (human recombinant PLK4) is reported as 4.96 nM and the IC50 (CHP-134 cells) is reported as 2030 nM.

For `COc1ccc2c(c1)[C@]1(C[C@H]1c1ccc3c(Nc4cc5cccnc5cc4OC)n[nH]c3c1)C(=O)N2` [Example 161, (1R,2S)-5′-methoxy-2-{3-[(7-methoxyquinolin-6-yl)amino]-1H-indazol-6-yl}spiro[cyclopropane-1,3′-indol]-2′(1′1H)-one], the “[Aurora A IC50 (nM)]/[PLK4 IC50 (nM)]” value [1] was 291.4932, the IC50 (human recombinant PLK4) was 2.21 nM and the IC50 (CHP-134 cells) was 352 nM. For the same compound, the “[Aurora B IC50 (nM)]/[PLK4 IC50 (nM)]” value [2] was 258.4163.

`COc1ccc2c(c1)[C@]1(C[C@H]1c1ccc3c(Nc4ccc(C(=O)N5CCOCC5)nc4OC)n[nH]c3c1)C(=O)N2` [Example 183, (1R,2S)-5′-methoxy-2-(3-{[2-methoxy-6-(morpholine-4-carbonyl)pyridin-3-yl]amino}-1H-indazol-6-yl)spiro(cyclopropane-1,3′-indol]-2′(1′H)-one] was tested, and the “[Aurora A IC50 (nM)]/[PLK4 IC50 (nM)]” value [1] was 534.2169, the IC50 (human recombinant PLK4) was 1.25 nM and the IC50 (CHP-134 cells) was 125 nM. For the same compound, the “[Aurora B IC50 (nM)]/[PLK4 IC50 (nM)]” value [2] was 322.5703.

`COc1ccc2c(c1)[C@]1(C[C@H]1c1ccc3c(Nc4nc(C5CC5)nc(N5CCS(=O)(=O)CC5)c4Cl)n[nH]c3c1)C(=O)N2` [Example 70, 4-[5-chloro-2-cyclopropyl-6-({6-[(1R,2S)-5′-methoxy-2′-oxo-1′,2′-dihydrospiro[cyclopropan-1,3′-indol]-2-yl]-1H-indazol-3-yl}amino)pyrimidin-4-y1]-1λ6-thiomorpholine-1,1-dione] was tested, and the “[Aurora A IC50 (nM)]/[PLK4 IC50 (nM)]” value [1] was 1376.93, the IC50 (human recombinant PLK4) was 1.1 nM and the IC50 (CHP-134 cells) was 80.3 nM. The “[Aurora B IC50 (nM)]/[PLK4 IC50 (nM)]” value [2] was 512.7157.

In the case of `COc1ccc2c(c1)[C@]1(C[C@H]1c1ccc3c(Nc4nc(C5CCOC5)ncc4OC)n[nH]c3c1)C(=O)N2` (single isomer, unassigned) [Example 201], the “[Aurora A IC50 (nM)]/[PLK4 IC50 (nM)]” value [1] is reported as 485.6389, the IC50 (human recombinant PLK4) is reported as 1.71 nM and the IC50 (CHP-134 cells) is reported as 455 nM. The “[Aurora B IC50 (nM)]/[PLK4 IC50 (nM)]” value [2] was 229.0739.

For `COc1ccc2c(c1)[C@]1(C[C@H]1c1ccc3c(Nc4nc(N5CCC(F)(F)CC5)ncc4OC)n[nH]c3c1)C(=O)N2` [Example 189, (1R,2S)-2-(3-{[2-(4,4-difluornpiperidin-1-yl)-5-methoiypyrimidin-4-yl]amino}-1H-indazol-6-yl)-5′-methoxyspiro[cyclopropane-1,3′-indol]-2′(1′H)-one], the “[Aurora A IC50 (nM)]/[PLK4 IC50 (nM)]” value [1] was 383.7321, the IC50 (human recombinant PLK4) was 1.04 nM and the IC50 (CHP-134 cells) was 112 nM. For the same compound, the “[Aurora B IC50 (nM)]/[PLK4 IC50 (nM)]” value [2] was 514.5455.

`COc1ccc2c(c1)[C@]1(C[C@H]1c1ccc3c(Nc4nc5ccccc5cc4OC)n[nH]c3c1)C(=O)N2` [Example 163, (1R,2S)-5′-methoxy-2-{3-[(3-methoxyquinolin-2-yl)amino]-1H-indazol-6-yl}spiro[cyclopropane-1,3′-indol]-2′(1′H)-one] was tested, and the “[Aurora A IC50 (nM)]/[PLK4 IC50 (nM)]” value [1] was 2164.0420, the IC50 (human recombinant PLK4) was 1.52 nM and the IC50 (CHP-134 cells) was 226 nM. For the same compound, the “[Aurora B IC50 (nM)]/[PLK4 IC50 (nM)]” value [2] was 389.4357.

In the case of `COc1ccc2c(c1)[C@]1(C[C@H]1c1ccc3c(Nc4cc5c(cc4OC)C(=O)N(C)C5)n[nH]c3c1)C(=O)N2` [Example 265, (1R,2S)-5′-methoxy-2-{3-[(6-methoxy-2-methyl-1-oxo-2,3-dihydro-1H-isoindol-5-yl)amino]-1H-indazol-6-yl)spiro[cyclopropane-1,3′-indol]-2′(1′H)-one], the “[Aurora A IC50 (nM)]/[PLK4 IC50 (nM)]” value [1] is reported as 686, the IC50 (human recombinant PLK4) is reported as 1.98 nM and the IC50 (CHP-134 cells) is reported as 1070 nM. For the same compound, the “[Aurora B IC50 (nM)]/[PLK4 IC50 (nM)]” value [2] was 725.3912.

For `COc1ccc2c(c1)[C@]1(C[C@H]1c1ccc3c(Nc4cc(S(=O)(=O)C5CCOCC5)ccc4OC)n[nH]c3c1)C(=O)N2` [Example 224, (1R,2S)-5′-methoxy-2-{3-[2-methoxy-5-(oxane-4-sulfonyl)anilino]-1H-indazol-6-yl}spiro[cyclopropane-1,3′-indol]-2′(1′H)-one], the IC50 (CHP-134 cells) was 2020 nM.

For `COc1ccc2c(c1)[C@]1(C[C@H]1c1ccc3c(Nc4cc(N5CCN(C)C5=O)cnc4OC)n[nH]c3c1)C(=O)N2` [Example 221, (1R,2S)-5′-methoxy-2-(3-{[2-methoxy-5-(3-methyl-2-oxoimidazolidin-1-yl)pyridin-3-yl]amino}-1H-indazol-6-yl)spiro[cyclopropane-1,3′-indol]-2′(1′H)-one], the IC50 (CHP-134 cells) was 849 nM.

`COc1ccc2c(c1)[C@]1(C[C@H]1c1ccc3c(Nc4nc(OC)ncc4OC)n[nH]c3c1)C(=O)N2` [Example 156, (1R,2S)-2-{3-[(2,5-dimethoxypyrimidin-4-yl)amino]-1H-indazol-6-yl}-5′-methoxyspiro[cyclopropane-1,3′-indol]-2′(1′H)-one] gave an IC50 (CHP-134 cells) of 494 nM.

With `COc1ccc2c(c1)[C@]1(CC1c1ccc3c(/C=C/c4ccc(CN5C[C@@H](C)O[C@@H](C)C5)cc4)n[nH]c3c1)C(=O)N2` (some centres unmarked) [CFI-400495, reference compound] the IC50 (CHP-134 cells) was 9.08 nM.

In the case of `CCn1nc(C2CC2)cc1Nc1n[nH]c2cc([C@@H]3C[C@@]34C(=O)Nc3ccc(OC)cc34)ccc12` [Example 92, (1R,2S)-2-{3-[(3-cyclopropyl-1-ethyl-1H-pyrazol-5-yl)amino]-1H-indazol-6-yl}-5′-methoxyspiro[cyclopropane-1,3′-indol]-2′(1′H)-one], the “[Aurora A IC50 (nM)]/[PLK4 IC50 (nM)]” value [1] is reported as 132.8355, the IC50 (human recombinant PLK4) is reported as 8.84 nM and the “[Aurora B IC50 (nM)]/[PLK4 IC50 (nM)]” value [2] is reported as 76.36.
